The assay in a line: Inhibition of mouse IL5-mediated mouse Y16 cell proliferation after 48 hrs by WST1 assay.

In BindingDB's records for doi:10.1016/j.bmc.2015.03.045 (Chungnam National University, 2015) one finds IC50 data, which are given here for 17 molecules.

What is called IC50 is the concentration at which inhibition is half-maximal. High values mean lower potency, low ones higher potency.

Turning to `O=C(Nc1ccc2oc(-c3ccccc3)c(CO)c(=O)c2c1)c1ccccc1`, it took 22 µM to reach half-maximal inhibition (IC50).

The molecule `O=C(Nc1ccc2oc(-c3ccccc3)c(CO)c(=O)c2c1)C1CCCCC1` displayed an IC50 above 30 µM.

`O=C(Nc1ccc2oc(C3CCCCC3)c(CO)c(=O)c2c1)c1ccccc1`: it took 10 µM to reach half-maximal inhibition (IC50).

Molecule `O=C(Nc1ccc2oc(-c3ccc(F)cc3)c(CO)c(=O)c2c1)c1ccccc1` returned an IC50 above 30 µM.

The molecule `CC(=O)OCc1c(-c2ccccc2)oc2ccc(NC(=O)c3ccccc3)cc2c1=O` showed an IC50 of 16 µM. In other words, the double-digit micromolar range.

The molecule `CC(=O)OCc1c(-c2ccccc2)oc2ccc(NC(=O)c3cnccn3)cc2c1=O` displayed an IC50 above 30 µM.

Turning to `O=C(Nc1ccc2oc(C3CCCCC3)c(CO)c(=O)c2c1)C1CCCCC1`, the IC50 is above 30 µM.

Molecule `CC(=O)OCc1c(C2CCCCC2)oc2ccc(NCc3ccccc3)cc2c1=O` displayed an IC50 of 19.2 µM.

In the case of `CC(=O)OCc1c(C2CCCCC2)oc2ccc(NC(=O)Nc3ccccc3)cc2c1=O`, the IC50 was above 30 µM.

Take `CC(=O)OCc1c(-c2ccccc2)oc2ccc(NC(=O)C3CCCCC3)cc2c1=O`: the IC50 stood at 18 µM.

As to `CC(=O)OCc1c(-c2ccc(F)cc2)oc2ccc(NC(=O)c3ccccc3)cc2c1=O`, the IC50 is above 30 µM.

`CC(C)(C)C(=O)OCc1c(C2CCCCC2)oc2ccc(NC(=O)c3ccccc3)cc2c1=O` showed an IC50 above 30 µM.

Regarding `CC(=O)OCc1c(C2CCCCC2)oc2ccc(NS(=O)(=O)c3ccccc3)cc2c1=O`, the IC50 was above 30 µM.

The molecule `O=C(Nc1ccc2oc(-c3ccccc3)c(CO)c(=O)c2c1)c1cnccn1` came in with an IC50 above 30 µM.

`CC(C)C(=O)OCc1c(C2CCCCC2)oc2ccc(NC(=O)c3ccccc3)cc2c1=O` had a half-maximal inhibitory concentration (IC50) of 19 µM. This counts as double-digit micromolar.

For `CC(=O)OCc1c(C2CCCCC2)oc2ccc(NC(=O)c3ccccc3)cc2c1=O`, the midpoint of inhibition, the IC50, lay at 6.1 µM. Against the preceding molecule, the IC50 is about 3.1-fold lower.

The molecule `CC(=O)OCc1c(C2CCCCC2)oc2ccc(NC(=O)C3CCCCC3)cc2c1=O` returned an IC50 of 20 µM.
